In the test the test system is thin-cap fibroatheroma (TCFA). Briefly: drug-eluting stent implants in hypercholesterolemic rabbit model of human thin-cap fibroatheroma. In kind it is in vivo. The note with it: 28 days; compared to unstented (de novo) TCFAs. The method, then: The MULTI-LINK Penta™ 13 mm was the platform for all DES and metallic stents. Both a slow release and fast release formulation of each drug were tested and the results were evaluated at 28 days. In both FIGS. 4 and 5, the test results concerning the slow release formulation were labeled with “s”, the test results concerning the fast release formulation were labeled with “f”, and the test results data concerning a formulation having both a slow and a fast release of an agent are labeled with “s+f.”

On to `C[C@]12CC[C@@H]3c4ccc(O)cc4CC[C@H]3[C@@H]1CC[C@@H]2O` [beta-estradiol, 17-beta-estradiol], for which the percent lipid area entry is “reduce” and the “total fibrous cap thickness” value is “increase”.
In the same order, the values of `CO[C@H]1C[C@@H]2CC[C@@H](C)[C@@](O)(O2)C(=O)C(=O)N2CCCC[C@H]2C(=O)O[C@H]([C@H](C)C[C@@H]2CC[C@@H](OCCO)[C@H](OC)C2)CC(=O)[C@H](C)/C=C(\C)[C@@H](O)[C@@H](OC)C(=O)[C@H](C)C[C@H](C)/C=C/C=C/C=C/1C` [everolimus, 40-O-(2-hydroxy)ethyl-rapamycin] are “reduce” and “increase”.

Values taken from patent US8017140B2, “Drug-delivery stent formulations for restenosis and vulnerable plaque” (Advanced Cardiovascular System, Inc., priority 2004, dated 2011).
